One molecule from patent US20240360116A1, “BICYCLIC DERIVATIVES” (ELANCO TIERGESUNDHEIT AG, priority 2020, published 2024) can be followed below.

Where only a bound is given, the exact number is not on record here.

Assay [1] concerns the target D. immitis Slo-1 (Dirofilaria immitis, UniProt I0DFK5). Put plainly: In Vitro Assay 2: D. immitis Slo-1 recombinant CHO cell line, membrane potential. The note with it: EC50, CHO cells expressing D. immitis Slo-1, voltage sensitive dye, FLIPR Tetra, 70 mM KCl. The format is cell-based.
The test system of assay [2] is Dirofilaria immitis microfilariae. Description: In Vitro Assay 3: Dirofilaria immitis microfilariae (DIROIM L1). The note with it: 72 h, read-out: EC50 (reduction of motility).
Assay [3] concerns Dirofilaria immitis third-stage larvae. Description: In Vitro Assay 4: Dirofilaria immitis (DIROIM L4). The note with it: 72 h, read-out: EC50 (reduction of motility).
Assay [4] concerns Adult Nippostrongylus brasiliensis. Description: In Vitro Assay 5: Nippostrongylus brasiliensis (NIPOBR), acetylcholine esterase readout. Conditions: adult worms, tested at 10, 1 and 0.1 ppm, vs negative control. The method, then: Adult Nippostrongylus brasiliensis were washed with saline buffer containing 100 U/ml penicillin, 0.1 mg/ml streptomycin and 2.5 μg/ml amphotericin B. Test compounds were dissolved in DMSO and worms were incubated in medium in a final concentration of 10 μg/ml (10 ppm), 1 μg/ml (1 ppm) and 0.1 μg/ml (0.1 ppm) respectively. An aliquot of the medium was used to determine the acetylcholine esterase activity in comparison to a negative control. The principle of measuring acetylcholine esterase as readout for anthelmintic activity was described in Rapson et al (1986) and Rapson et al (1987).
Based on the evaluation of a wide concentration range, concentration-response curves as well as EC50-values were calculated.

D. immitis Slo-1, sequence (I0DFK5 1-1119): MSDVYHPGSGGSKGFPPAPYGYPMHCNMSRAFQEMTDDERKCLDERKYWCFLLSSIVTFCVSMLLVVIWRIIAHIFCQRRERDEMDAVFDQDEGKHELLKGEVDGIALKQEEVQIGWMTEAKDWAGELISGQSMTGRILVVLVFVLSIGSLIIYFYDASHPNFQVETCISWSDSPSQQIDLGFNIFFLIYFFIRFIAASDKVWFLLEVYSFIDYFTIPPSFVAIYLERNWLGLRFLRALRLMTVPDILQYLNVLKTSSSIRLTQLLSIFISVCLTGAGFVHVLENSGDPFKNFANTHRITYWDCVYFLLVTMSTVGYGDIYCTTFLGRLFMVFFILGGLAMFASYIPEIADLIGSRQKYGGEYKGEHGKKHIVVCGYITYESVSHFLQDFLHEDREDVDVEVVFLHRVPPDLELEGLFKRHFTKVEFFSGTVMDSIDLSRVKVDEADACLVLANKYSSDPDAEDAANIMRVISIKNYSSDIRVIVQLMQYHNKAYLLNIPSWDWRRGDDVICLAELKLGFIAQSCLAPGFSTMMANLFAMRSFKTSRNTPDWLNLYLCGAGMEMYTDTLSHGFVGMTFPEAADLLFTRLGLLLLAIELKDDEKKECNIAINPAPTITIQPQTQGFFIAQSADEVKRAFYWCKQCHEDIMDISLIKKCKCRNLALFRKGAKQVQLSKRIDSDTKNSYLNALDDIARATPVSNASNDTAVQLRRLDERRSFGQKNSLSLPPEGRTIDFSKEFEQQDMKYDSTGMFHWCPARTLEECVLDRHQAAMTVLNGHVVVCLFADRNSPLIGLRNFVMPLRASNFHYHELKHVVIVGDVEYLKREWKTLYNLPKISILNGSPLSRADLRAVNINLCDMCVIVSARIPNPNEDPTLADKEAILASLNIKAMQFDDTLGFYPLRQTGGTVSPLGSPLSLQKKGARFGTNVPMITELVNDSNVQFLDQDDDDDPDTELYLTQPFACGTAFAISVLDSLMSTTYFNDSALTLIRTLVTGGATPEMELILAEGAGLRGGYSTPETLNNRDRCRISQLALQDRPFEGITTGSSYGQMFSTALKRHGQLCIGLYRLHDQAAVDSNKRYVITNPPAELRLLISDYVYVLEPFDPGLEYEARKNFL

Regarding `O=C(NN1CCOc2ccc(F)cc21)c1cnc2c(-c3cc(F)cc(F)c3F)c(F)ccc2c1N1CCOCC1` [Example 5.83, 7-fluoro-N-(6-fluoro-2,3-dihydro-1,4-benzoxazin-4-yl)-4-morpholino-8-(2,3,5-trifluorophenyl)quinoline-3-carboxamide], the EC50 was less than 100 nM in assay [1], less than 0.1 µg/mL in assay [2], less than 0.1 µg/mL in assay [3] and less than 0.1 µg/mL in assay [4].
